Patent publication US12336991B2, “Factor XIIA inhibitors” (UNIVERSITY OF LEEDS, priority 2018, dated 2025)

Key:
Type in all cases: biochemical
FXIIa = biological target: T1, FXIIa (Homo sapiens, UniProt P00748); test: Determination of Factor XIIa inhibition, chromogenic substrate S-2302 assay; details: human FXIIa alpha
T1 sequence (P00748 373-615 limits assumed): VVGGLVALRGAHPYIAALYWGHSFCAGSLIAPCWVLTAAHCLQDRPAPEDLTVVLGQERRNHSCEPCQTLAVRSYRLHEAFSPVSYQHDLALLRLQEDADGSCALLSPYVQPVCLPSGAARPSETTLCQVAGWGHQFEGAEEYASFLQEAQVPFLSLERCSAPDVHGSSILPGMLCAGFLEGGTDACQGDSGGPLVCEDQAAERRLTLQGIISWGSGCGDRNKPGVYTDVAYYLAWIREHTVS
T1 sequence (P00748 20-372 partner limits assumed): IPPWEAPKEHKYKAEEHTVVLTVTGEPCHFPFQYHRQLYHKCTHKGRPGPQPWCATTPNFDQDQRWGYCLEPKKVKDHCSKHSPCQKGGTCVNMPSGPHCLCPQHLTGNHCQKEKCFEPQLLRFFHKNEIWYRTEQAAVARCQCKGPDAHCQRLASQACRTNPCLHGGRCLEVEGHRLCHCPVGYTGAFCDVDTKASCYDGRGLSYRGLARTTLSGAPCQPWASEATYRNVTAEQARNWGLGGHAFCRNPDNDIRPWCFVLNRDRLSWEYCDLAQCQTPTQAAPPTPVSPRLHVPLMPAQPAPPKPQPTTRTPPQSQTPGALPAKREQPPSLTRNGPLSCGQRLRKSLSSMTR
In short: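 FXIIa (10 nM) preincubated with compound 10 min at 37° C. in 50 mM Tris, 137 mM NaCl pH 7.4, 5% DMSO, top concentration 500 μM, then S-2302 added ([…]). Absorbance at 405 nm read kinetically for 3 h; IC50 from initial rates, converted to Ki by Cheng-Prusoff.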

FXa = FXa (Homo sapiens, UniProt P00742); test: Determination of selectivity: FXa inhibition, chromogenic substrate S2765 assay; details: fold selectivity for FXIIa over FXa
In short: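 Human FXa (5 nM) preincubated with compound (top 500 μM, 5% DMSO) 10 min at 37 °C in 50 mM Tris, 137 mM NaCl pH 7.4, then S2765 ([…]) added; A405 kinetics over 3 h at 37 °C. IC50 from initial rates, converted to Ki via Cheng-Prusoff.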

thrombin = biological target: T2, thrombin (Homo sapiens, UniProt P00734); test: Determination of selectivity: thrombin inhibition, chromogenic substrate GPR assay; details: fold selectivity for FXIIa over thrombin
T2 construct: FXa (5 nM) and thrombin (5 nM)
In short: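 Thrombin (5 nM) preincubated with compound 10 min at 37 °C in 50 mM Tris, 137 mM NaCl, pH 7.4, 5% DMSO, then GPR substrate ([…]) added. Absorbance at 405 nm read kinetically for 3 h; IC50 from initial rates, converted to Ki via Ki=IC50/(1+[S]/Km).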

Chain of FXa (P00742 235-488 limits assumed): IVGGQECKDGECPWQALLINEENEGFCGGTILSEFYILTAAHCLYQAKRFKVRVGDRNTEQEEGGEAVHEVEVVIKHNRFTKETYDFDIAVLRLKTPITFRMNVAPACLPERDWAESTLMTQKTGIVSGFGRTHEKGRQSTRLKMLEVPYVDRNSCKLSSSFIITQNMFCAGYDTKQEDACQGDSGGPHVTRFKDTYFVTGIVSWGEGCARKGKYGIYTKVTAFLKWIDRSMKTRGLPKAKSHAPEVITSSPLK
Chain of FXa (P00742 41-179 partner limits assumed): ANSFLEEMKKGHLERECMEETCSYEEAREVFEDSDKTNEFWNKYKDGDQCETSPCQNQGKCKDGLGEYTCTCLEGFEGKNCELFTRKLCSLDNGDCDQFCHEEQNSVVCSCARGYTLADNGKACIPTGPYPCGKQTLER

Row | Structure (SMILES) | Ki (FXIIa) [nM] | FXa (human)/FXIIa alpha (human) (FXa) | Thrombin (human)/FXIIa alpha (human) (thrombin)
1 | COc1ccc(C[C@@H]2C[C@@H](C(=O)NCc3ccc4c(c3)nnn4C)N(C(=O)[C@H]3C[C@@H](c4cnn(C)c4)CN3)C2)cc1 [Example M05381] | 200 to 2000 | ∘∘∘ | +++ (fold selectivity values greater than 100)
2 | COc1ccc(C[C@@H]2C[C@@H](C(=O)NCc3ccc4c(c3)nnn4C)N(C(=O)[C@H]3CC(c4ccc(C(F)(F)F)cc4)CN3)C2)cc1 (stereo partly drawn) [Example M05345] | > 2000 | ∘∘ | ++ (fold selectivity value of 10 to 100)
3 | CN(C)[C@H](CCC(=O)N1CCCC1)C(=O)N1C[C@H](Cc2cccnc2)C[C@H]1C(=O)NCc1ccc2c(cnn2C)c1 [Example M05223] | 200 to 2000 | ∘∘∘ | +++ (fold selectivity values greater than 100)
4 | Cn1nnc2cc(CNC(=O)[C@@H]3CC(Cc4ccc(C(F)(F)F)cc4)CN3C(=O)[C@H](N)CCC(=O)N3CCCC3)ccc21 (stereo partly drawn) [Example M05309] | 200 to 2000 | ∘∘∘ | +++ (fold selectivity values greater than 100)
5 | Cn1nnc2cc(CNC(=O)[C@@H]3C[C@H](NCc4ccccc4)CN3C(=O)[C@H](N)CCc3ccccc3)ccc21 [Example M05158] | > 2000 | ∘∘ | ++ (fold selectivity value of 10 to 100)
6 | Cn1cc(-c2ccc(C[C@@H]3C[C@@H](C(=O)NCc4ccc5c(c4)nnn5C)N(C(=O)[C@H](N)CCC(=O)N4CCCC4)C3)cc2)cn1 [Example M05341] | 200 to 2000 | ∘∘∘ | +++ (fold selectivity values greater than 100)
7 | CC(=O)N(Cc1ccccc1)[C@H]1C[C@@H](C(=O)NCc2ccc3c(c2)nnn3C)N(C(=O)[C@H](N)CCc2ccccc2)C1 [Example M05161] | > 2000 | ∘∘ | ++ (fold selectivity value of 10 to 100)
8 | Nc1cc(CNC(=O)[C@@H]2C[C@@](O)(c3ccc(F)c(F)c3)CN2C(=O)[C@H](N)CCc2ccccc2)ccn1 [Example M05127] | 200 to 2000 | ∘∘ | ++ (fold selectivity value of 10 to 100)
9 | Cn1nnc2cc(CNC(=O)[C@@H]3C[C@@H](c4ccccc4)CN3C(=O)[C@H](N)CCC(=O)N3CCCC3)ccc21 [Example M05155] | 200 to 2000 | ∘∘∘ | +++ (fold selectivity values greater than 100)
10 | Cn1nnc2cc(CNC(=O)[C@@H]3C[C@@H](Cc4cc(F)cc(F)c4)CN3C(=O)[C@H](N)CCC(=O)N3CCCC3)ccc21 [Example M05274] | 200 to 2000 | ∘∘∘ | +++ (fold selectivity values greater than 100)
11 | Cn1nnc2cc(CNC(=O)[C@@H]3C[C@@H](Cc4ccc(Br)cc4)CN3C(=O)[C@H](N)CCC(=O)N3CCCC3)ccc21 [Example M05326] | < 200 | ∘∘∘ | +++ (fold selectivity values greater than 100)
12 | Nc1nccc2cc(CNC(=O)[C@@H]3C[C@@H](c4ccccc4)CN3C(=O)[C@H](N)CCC(=O)N3CCCC3)ccc12 [Example M05282] | 200 to 2000 | ∘ | ++ (fold selectivity value of 10 to 100)
13 | COc1ccc(C[C@@H]2C[C@@H](C(=O)NCc3ccc4c(c3)nnn4C)N(C(=O)[C@H]3CC(c4ccnn4C)CN3)C2)cc1 (stereo partly drawn) [Example M05376] | > 2000 | ∘∘ | ++ (fold selectivity value of 10 to 100)
14 | COc1ccc(C[C@@H]2C[C@@H](C(=O)NCc3ccc4c(c3)nnn4C)N(C(=O)[C@@H]3NCCc4ccccc43)C2)cc1 [Example M05368] | > 2000 | ∘∘ | ++ (fold selectivity value of 10 to 100)
15 | NCc1ccc(CNC(=O)[C@@H]2C[C@@H](Cc3cccc(Cl)c3)CN2C(=O)[C@H](N)CCc2ccccc2)cc1 [Example M05130] | 200 to 2000 | ∘∘∘ | ++ (fold selectivity value of 10 to 100)
16 | Cn1nnc2cc(CNC(=O)[C@@H]3C[C@@H](Cc4ccccc4C(F)(F)F)CN3C(=O)[C@H]3C[C@@H](c4ccccc4)CN3)ccc21 [Example M05357] | > 2000 | ∘∘ | ++ (fold selectivity value of 10 to 100)
17 | COc1ccc(C[C@@H]2C[C@@H](C(=O)NCc3ccc4c(c3)nnn4C)N(C(=O)[C@H](N)CCC(=O)N3CCC[C@H]3C(C)C)C2)cc1 [Example M05407] | < 200 | ∘∘∘ | +++ (fold selectivity values greater than 100)
18 | COc1ccc(C[C@@H]2C[C@@H](C(=O)NCc3ccc4c(c3)nnn4C)N(C(=O)C3NCCc4cc(Br)ccc43)C2)cc1 (stereo partly drawn) [Example M05471] | > 2000 | ∘∘ | ++ (fold selectivity value of 10 to 100)
19 | Cn1nnc2cc(CNC(=O)[C@@H]3CC(Cc4ccc(C#N)cc4)CN3C(=O)[C@H](N)CCC(=O)N3CCCC3)ccc21 (stereo partly drawn) [Example M05312] | 200 to 2000 | ∘∘∘ | +++ (fold selectivity values greater than 100)
20 | CC(=O)N(Cc1cccnc1)[C@H]1C[C@@H](C(=O)NCc2ccc3c(c2)nnn3C)N(C(=O)[C@H](N)CCc2ccccc2)C1 [Example M05162] | > 2000 | ∘∘ | ++ (fold selectivity value of 10 to 100)
21 | COC(=O)N[C@H]1C[C@@H](C(=O)NCc2ccc3c(c2)nnn3C)N(C(=O)[C@H](N)CCc2ccccc2)C1 [Example M05207] | > 2000 | ∘∘ | ++ (fold selectivity value of 10 to 100)
22 | Cn1nnc2cc(CNC(=O)[C@@H]3C[C@@H](Cc4ccccc4F)CN3C(=O)[C@H]3C[C@@H](c4ccccc4)CN3)ccc21 [Example M05332] | > 2000 | ∘∘ | ++ (fold selectivity value of 10 to 100)
23 | Cn1nnc2cc(CNC(=O)[C@@H]3C[C@H](Cc4ccccc4)CN3C(=O)[C@H](N)CCC(=O)N3CCCC3)ccc21 [Example M05211, (2S,4S)-1-((R)-2-Amino-5-oxo-5-pyrrolidin-1-yl-pentanoyl)-4-benzyl-pyrrolidine-2-carboxylic acid (1-methyl-1H-benzotriazol-5-ylmethyl)-amide] | 200 to 2000 | ∘∘∘ | +++ (fold selectivity values greater than 100)
24 | COc1ccc(C[C@@H]2C[C@@H](C(=O)NCc3ccc4c(c3)nnn4C)N(C(=O)[C@H](N)CCC(=O)N3CCNC[C@H]3C)C2)cc1 [Example M05443] | 200 to 2000 | ∘∘∘ | +++ (fold selectivity values greater than 100)
25 | Cn1nnc2cc(CNC(=O)[C@@H]3C[C@H](NC(=O)CCc4ccccc4)CN3C(=O)[C@H](N)CCc3ccccc3)ccc21 [Example M05195] | > 2000 | ∘∘ | ++ (fold selectivity value of 10 to 100)
